Holding throughout (experiment): TGFα-shedding assay-based GPCR screening with chimeric Gα subunit proteins
Common to all, as to format: cell-based

The target of experiment [1] is T1, 348 GPCRs (Homo sapiens, UniProt Q8TDS7).
T1 construct: expressed in transfected cells; host or cells: HEK293A
The following applies: 10µM, Favipiravir 100μM.

The target in experiment [2] is T2, 348 GPCRs (Homo sapiens, UniProt Q13639).
T2 construct: expressed in transfected cells; host or cells: HEK293A
Conditions: 10µM, Favipiravir 100μM.

For experiment [3], the target named is 348 GPCRs (Homo sapiens, UniProt P47872). The following applies: SCTR (secretin receptor); 10µM, Favipiravir 100μM.
The target of experiment [4] is T3, 348 GPCRs (Homo sapiens, UniProt P46092).
T3 construct: expressed in transfected cells; host or cells: HEK293A
T3 sequence (P46092 1-362): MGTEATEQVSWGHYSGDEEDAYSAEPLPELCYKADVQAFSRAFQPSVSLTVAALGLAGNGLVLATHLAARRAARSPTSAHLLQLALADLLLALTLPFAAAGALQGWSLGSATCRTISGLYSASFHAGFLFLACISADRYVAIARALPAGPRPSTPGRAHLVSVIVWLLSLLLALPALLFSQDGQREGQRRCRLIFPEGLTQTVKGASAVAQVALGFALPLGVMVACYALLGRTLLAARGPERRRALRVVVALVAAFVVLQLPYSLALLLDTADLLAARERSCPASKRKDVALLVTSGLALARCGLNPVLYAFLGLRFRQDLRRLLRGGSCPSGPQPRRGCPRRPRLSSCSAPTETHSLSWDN
Conditions: 10µM, Favipiravir 100μM.

The target in experiment [5] is T4, 348 GPCRs (Homo sapiens, UniProt Q96LB0).
T4 construct: expressed in transfected cells; host or cells: HEK293A
Conditions: 10µM, Favipiravir 100μM.

Experiment [6] deals with 348 GPCRs (Homo sapiens, UniProt P28223). Conditions: 10µM, Favipiravir 100μM.
The target of experiment [7] is T5, 348 GPCRs (Homo sapiens, UniProt Q5T6X5).
T5 construct: expressed in transfected cells; host or cells: HEK293A
T5 sequence (Q5T6X5 19-926): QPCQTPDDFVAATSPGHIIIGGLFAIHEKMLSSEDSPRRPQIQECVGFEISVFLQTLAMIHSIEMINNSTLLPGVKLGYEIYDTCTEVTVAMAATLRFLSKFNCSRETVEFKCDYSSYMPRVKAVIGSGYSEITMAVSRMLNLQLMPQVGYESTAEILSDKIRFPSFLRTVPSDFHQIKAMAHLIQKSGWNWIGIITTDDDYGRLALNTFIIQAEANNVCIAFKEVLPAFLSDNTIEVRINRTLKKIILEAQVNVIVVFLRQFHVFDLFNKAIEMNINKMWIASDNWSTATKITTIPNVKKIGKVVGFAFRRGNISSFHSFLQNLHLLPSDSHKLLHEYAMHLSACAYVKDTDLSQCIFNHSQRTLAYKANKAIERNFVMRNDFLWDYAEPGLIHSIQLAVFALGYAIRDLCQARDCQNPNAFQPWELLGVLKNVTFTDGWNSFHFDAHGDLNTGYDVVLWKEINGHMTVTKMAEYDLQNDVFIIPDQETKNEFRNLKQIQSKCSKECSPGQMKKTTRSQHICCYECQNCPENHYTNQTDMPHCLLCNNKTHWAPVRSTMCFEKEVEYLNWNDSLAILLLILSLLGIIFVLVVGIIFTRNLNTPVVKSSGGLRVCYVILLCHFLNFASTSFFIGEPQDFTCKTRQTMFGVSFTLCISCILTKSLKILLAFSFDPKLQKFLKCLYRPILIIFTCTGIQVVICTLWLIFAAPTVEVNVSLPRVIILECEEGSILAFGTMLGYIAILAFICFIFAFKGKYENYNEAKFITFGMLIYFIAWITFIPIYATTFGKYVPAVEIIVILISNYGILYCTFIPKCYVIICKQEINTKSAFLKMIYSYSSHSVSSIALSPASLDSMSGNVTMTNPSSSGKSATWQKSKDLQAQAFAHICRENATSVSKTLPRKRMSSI
Conditions: 10µM, Favipiravir 100μM.

Experiment [8] deals with T6, 348 GPCRs (Homo sapiens, UniProt Q8TCW9).
T6 construct: expressed in transfected cells; host or cells: HEK293A

The target in experiment [9] is T7, 348 GPCRs (Homo sapiens, UniProt Q9NYW3).
T7 construct: expressed in transfected cells; host or cells: HEK293A
T7 sequence (Q9NYW3 1-318): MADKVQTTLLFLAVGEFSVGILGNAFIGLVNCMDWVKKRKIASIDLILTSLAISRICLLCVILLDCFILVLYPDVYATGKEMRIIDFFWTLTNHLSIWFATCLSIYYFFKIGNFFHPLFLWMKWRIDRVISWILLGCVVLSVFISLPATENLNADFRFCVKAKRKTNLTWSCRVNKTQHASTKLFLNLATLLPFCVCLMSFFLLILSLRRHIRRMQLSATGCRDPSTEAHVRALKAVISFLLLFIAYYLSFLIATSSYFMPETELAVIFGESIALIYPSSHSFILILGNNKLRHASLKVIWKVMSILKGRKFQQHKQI
Conditions: 10µM, Favipiravir 100μM.

For experiment [10], the target named is T8, 348 GPCRs (Homo sapiens, UniProt Q15077).
T8 construct: expressed in transfected cells; host or cells: HEK293A

Experiment [11] deals with T9, 348 GPCRs (Homo sapiens, UniProt O00155).
T9 construct: expressed in transfected cells; host or cells: HEK293A
Conditions: 10µM, Favipiravir 100μM.

Experiment [12] has as its target T10, 348 GPCRs (Homo sapiens, UniProt Q9Y3P9).
T10 construct: expressed in transfected cells; host or cells: HEK293A
Conditions: 10µM, Favipiravir 100μM.

[13] abbreviates: MRGPRD (MAS-related GPR, member D), read-out: % GPCR activation compared to TPA.
[14] abbreviates: HTR4 (5-hydroxytryptamine (serotonin) receptor 4), read-out: % GPCR activation compared to TPA.
Where [15] appears, read: CCR10 (C-C motif chemokine receptor 10), read-out: % GPCR activation compared to TPA.
The mark [16] stands for this setting: MRGPRX3 (MAS-related GPR, member X3), read-out: % GPCR activation compared to TPA.
Where [17] appears, read: 5-HT2A (5-hydroxytryptamine receptor 2A), read-out: % GPCR activation compared to TPA.
[18] abbreviates: GPRC6A (G protein-coupled receptor, family C, group 6, member A), read-out: % GPCR activation compared to TPA.
The mark [19] stands for this setting: GPCR PK1 (prokineticin receptor 1), read-out: % GPCR activation compared to TPA.
Setting [20] is: TAS2R7 (taste receptor, type 2, member 7), read-out: % GPCR activation compared to TPA.
[21] abbreviates: GPCR P2Y6 (pyrimidinergic receptor P2Y, G-protein coupled, 6), read-out: % GPCR activation compared to TPA.
The mark [22] stands for this setting: GPR25 (G Protein-Coupled Receptor 25), read-out: % GPCR activation compared to TPA.
Setting [23] is: RABGAP1 (Rab GTPase-activating protein 1), read-out: % GPCR activation compared to TPA.
[24] abbreviates: read-out: % GPCR activation compared to TPA, MRGPRD (MAS-related GPR, member D).
Where [25] appears, read: read-out: % GPCR activation compared to TPA, HTR4 (5-hydroxytryptamine (serotonin) receptor 4).
[26] abbreviates: read-out: % GPCR activation compared to TPA, CCR10 (C-C motif chemokine receptor 10).
The mark [27] stands for this setting: read-out: % GPCR activation compared to TPA, MRGPRX3 (MAS-related GPR, member X3).
[28] abbreviates: read-out: % GPCR activation compared to TPA, 5-HT2A (5-hydroxytryptamine receptor 2A).
[29] abbreviates: read-out: % GPCR activation compared to TPA, GPRC6A (G protein-coupled receptor, family C, group 6, member A).
The mark [30] stands for this setting: read-out: % GPCR activation compared to TPA, GPCR PK1 (prokineticin receptor 1).
Where [31] appears, read: read-out: % GPCR activation compared to TPA, TAS2R7 (taste receptor, type 2, member 7).
Setting [32] is: read-out: % GPCR activation compared to TPA, GPCR P2Y6 (pyrimidinergic receptor P2Y, G-protein coupled, 6).
Setting [33] is: read-out: % GPCR activation compared to TPA, GPR25 (G Protein-Coupled Receptor 25).
[34] abbreviates: read-out: % GPCR activation compared to TPA, RABGAP1 (Rab GTPase-activating protein 1).

Where two headings read alike, the source gives them in different places.

Chain of 348 GPCRs (Homo sapiens, UniProt P47872) (P47872 23-440): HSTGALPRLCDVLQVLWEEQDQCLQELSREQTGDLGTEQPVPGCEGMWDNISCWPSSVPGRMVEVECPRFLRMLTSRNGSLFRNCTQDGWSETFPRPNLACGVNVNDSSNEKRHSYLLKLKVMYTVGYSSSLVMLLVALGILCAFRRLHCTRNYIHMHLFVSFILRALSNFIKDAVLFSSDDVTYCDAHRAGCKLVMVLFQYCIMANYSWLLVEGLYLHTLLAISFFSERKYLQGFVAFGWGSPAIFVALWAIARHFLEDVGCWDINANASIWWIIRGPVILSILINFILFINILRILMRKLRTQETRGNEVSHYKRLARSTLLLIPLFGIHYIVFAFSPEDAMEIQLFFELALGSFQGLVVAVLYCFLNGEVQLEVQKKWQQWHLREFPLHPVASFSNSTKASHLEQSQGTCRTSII
T9 sequence (O00155 whole entry): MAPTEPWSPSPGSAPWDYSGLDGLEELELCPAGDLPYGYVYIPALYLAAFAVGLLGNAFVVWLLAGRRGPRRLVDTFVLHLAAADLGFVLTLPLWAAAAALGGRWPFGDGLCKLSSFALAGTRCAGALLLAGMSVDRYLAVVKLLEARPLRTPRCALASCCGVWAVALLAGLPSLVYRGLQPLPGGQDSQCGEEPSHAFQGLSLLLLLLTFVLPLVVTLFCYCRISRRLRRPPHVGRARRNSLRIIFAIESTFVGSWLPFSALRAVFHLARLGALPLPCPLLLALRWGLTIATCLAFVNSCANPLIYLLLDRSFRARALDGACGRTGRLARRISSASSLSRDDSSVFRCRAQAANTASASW
T10 sequence (Q9Y3P9 whole entry): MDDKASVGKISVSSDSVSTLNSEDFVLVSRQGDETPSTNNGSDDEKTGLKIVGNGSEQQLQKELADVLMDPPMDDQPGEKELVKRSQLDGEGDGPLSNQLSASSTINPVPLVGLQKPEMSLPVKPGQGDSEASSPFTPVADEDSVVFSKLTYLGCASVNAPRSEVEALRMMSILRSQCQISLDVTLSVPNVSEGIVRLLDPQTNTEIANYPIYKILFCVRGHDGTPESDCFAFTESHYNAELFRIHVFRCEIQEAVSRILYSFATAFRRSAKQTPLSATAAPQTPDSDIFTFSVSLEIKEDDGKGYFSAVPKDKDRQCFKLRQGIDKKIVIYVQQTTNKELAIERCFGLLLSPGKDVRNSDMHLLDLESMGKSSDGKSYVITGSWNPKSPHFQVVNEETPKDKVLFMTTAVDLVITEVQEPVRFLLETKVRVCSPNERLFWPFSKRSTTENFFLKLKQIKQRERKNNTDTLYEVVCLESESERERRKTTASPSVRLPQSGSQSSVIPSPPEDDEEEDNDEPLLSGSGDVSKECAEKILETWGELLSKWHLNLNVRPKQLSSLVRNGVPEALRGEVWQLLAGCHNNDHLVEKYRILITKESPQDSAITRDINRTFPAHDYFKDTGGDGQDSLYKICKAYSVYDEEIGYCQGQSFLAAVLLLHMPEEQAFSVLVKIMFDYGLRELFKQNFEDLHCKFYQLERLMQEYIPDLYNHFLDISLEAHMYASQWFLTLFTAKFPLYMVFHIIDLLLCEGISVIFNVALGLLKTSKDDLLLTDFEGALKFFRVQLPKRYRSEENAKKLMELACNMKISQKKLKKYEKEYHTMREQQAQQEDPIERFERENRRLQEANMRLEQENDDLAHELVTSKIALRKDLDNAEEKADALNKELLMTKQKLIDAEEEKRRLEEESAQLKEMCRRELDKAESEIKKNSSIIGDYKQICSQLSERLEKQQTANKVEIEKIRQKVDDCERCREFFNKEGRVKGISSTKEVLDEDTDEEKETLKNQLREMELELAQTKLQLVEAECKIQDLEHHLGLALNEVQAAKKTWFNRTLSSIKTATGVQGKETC
T4 sequence (Q96LB0 whole entry): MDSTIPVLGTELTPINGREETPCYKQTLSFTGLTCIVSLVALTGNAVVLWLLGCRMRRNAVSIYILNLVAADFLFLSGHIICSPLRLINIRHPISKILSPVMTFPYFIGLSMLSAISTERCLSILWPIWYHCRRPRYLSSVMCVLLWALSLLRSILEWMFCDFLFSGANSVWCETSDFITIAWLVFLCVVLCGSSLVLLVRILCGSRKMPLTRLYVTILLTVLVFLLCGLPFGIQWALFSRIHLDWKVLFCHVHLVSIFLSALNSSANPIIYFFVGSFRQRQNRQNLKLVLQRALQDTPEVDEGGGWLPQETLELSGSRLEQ
T6 sequence (Q8TCW9 whole entry): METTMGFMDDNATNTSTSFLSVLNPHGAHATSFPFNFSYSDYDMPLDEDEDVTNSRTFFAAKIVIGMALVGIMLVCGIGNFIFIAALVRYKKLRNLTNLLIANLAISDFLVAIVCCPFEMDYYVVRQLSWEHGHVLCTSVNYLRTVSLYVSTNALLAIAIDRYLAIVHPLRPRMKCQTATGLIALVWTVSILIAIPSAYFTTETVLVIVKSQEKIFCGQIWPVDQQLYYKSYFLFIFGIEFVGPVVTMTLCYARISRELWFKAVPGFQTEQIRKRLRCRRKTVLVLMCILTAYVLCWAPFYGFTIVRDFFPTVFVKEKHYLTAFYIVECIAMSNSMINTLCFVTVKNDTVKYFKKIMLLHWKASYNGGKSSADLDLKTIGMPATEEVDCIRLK
Chain of 348 GPCRs (Homo sapiens, UniProt P28223) (P28223 whole entry): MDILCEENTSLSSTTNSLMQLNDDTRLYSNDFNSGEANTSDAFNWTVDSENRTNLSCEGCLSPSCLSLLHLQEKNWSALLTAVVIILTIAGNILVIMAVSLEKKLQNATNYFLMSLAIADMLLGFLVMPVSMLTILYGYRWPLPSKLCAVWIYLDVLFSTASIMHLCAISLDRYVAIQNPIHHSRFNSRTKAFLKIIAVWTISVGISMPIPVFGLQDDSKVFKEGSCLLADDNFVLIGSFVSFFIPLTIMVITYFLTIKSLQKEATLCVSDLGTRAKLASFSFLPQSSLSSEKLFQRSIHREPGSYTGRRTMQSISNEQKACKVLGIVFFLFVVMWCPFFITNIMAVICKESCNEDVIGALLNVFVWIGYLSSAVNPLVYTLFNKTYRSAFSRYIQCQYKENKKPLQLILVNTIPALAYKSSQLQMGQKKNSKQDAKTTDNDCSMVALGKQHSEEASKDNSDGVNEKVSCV
T2 sequence (Q13639 whole entry): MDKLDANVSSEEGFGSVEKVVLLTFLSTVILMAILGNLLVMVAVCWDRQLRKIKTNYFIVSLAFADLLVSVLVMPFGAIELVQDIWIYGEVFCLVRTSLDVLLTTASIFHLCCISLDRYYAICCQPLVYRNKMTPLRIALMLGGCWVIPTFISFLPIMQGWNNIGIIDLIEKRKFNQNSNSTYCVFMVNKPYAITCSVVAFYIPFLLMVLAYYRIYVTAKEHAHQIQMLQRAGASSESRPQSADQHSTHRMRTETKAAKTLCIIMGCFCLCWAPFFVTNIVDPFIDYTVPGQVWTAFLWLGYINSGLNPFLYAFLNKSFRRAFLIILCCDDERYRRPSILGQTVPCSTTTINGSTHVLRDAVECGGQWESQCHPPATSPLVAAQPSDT
T8 sequence (Q15077 whole entry): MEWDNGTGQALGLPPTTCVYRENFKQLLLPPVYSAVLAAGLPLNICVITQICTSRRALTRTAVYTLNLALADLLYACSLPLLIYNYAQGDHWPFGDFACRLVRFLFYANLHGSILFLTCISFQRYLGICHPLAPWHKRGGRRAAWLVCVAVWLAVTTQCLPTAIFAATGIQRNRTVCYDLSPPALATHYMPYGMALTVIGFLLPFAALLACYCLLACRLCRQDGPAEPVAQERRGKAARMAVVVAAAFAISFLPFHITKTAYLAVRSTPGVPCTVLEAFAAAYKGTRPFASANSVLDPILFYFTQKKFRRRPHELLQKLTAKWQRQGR
T1 sequence (Q8TDS7 whole entry): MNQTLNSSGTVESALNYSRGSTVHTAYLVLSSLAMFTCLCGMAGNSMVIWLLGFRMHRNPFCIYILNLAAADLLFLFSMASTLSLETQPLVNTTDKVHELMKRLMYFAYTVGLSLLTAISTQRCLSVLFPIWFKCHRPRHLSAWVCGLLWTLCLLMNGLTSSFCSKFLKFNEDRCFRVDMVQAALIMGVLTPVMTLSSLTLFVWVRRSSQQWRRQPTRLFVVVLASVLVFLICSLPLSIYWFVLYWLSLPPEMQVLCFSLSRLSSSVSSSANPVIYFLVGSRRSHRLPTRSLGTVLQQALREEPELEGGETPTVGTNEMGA

For the compound `CC(C)C(=O)OC[C@H]1O[C@@H](n2ccc(NO)nc2=O)[C@H](O)[C@@H]1O` [molnupiravir], the activation at 100 µM on 348 GPCRs [1] (setting [13]) is -3.12%; at 348 GPCRs [2] (setting [14]) it was -3.37%; on 348 GPCRs [4] (setting [15]) it was 0.0221%; at 348 GPCRs [5] (setting [16]), -1.5%; at 348 GPCRs [6] (setting [17]), -0.697%; on 348 GPCRs [11] (setting [22]), -2.16%. The activation at 100 µM on 348 GPCRs [12] (setting [23]) is -0.481%. In addition, the “% GPCR activation compared to TPA” value at 348 GPCRs [3] is listed as -0.08366%. Besides, the activation at 10 µM at 348 GPCRs [7] (setting [18]) was -1.51%; at 348 GPCRs [8] (setting [19]), -3.53%; at 348 GPCRs [9] (setting [20]), -0.399%; at 348 GPCRs [10] (setting [21]), -17.8%.

Regarding `CC(C)OC(=O)[C@H](C)N[P@](=O)(OC[C@H]1O[C@@H](n2ccc(=O)[nH]c2=O)[C@](C)(F)[C@@H]1O)Oc1ccccc1` [sofosbuvir], the activation at 100 µM at 348 GPCRs [1] (setting [24]) is 4.12%; at 348 GPCRs [2] (setting [25]), -4.08%; at 348 GPCRs [4] (setting [26]), 0.131%; on 348 GPCRs [5] (setting [27]), 0.522%; at 348 GPCRs [6] (setting [28]), -1.66%; at 348 GPCRs [11] (setting [33]) it was -0.661%. Also, the activation at 100 µM at 348 GPCRs [12] (setting [34]) is -1.28%. The “% GPCR activation compared to TPA” value on 348 GPCRs [3] amounted to 0.153%. The activation at 10 µM on 348 GPCRs [7] (setting [29]) is 0.803%; on 348 GPCRs [8] (setting [30]), -1.13%; on 348 GPCRs [9] (setting [31]), 0.253%; at 348 GPCRs [10] (setting [32]) it was -26.6%.

Take `N#C[C@@]1(c2ccc3c(N)ncnn23)O[C@H](CO)[C@@H](O)[C@H]1O` [GS441524]: the activation at 100 µM is -4.53% at 348 GPCRs [1] (setting [13]); -1.56% at 348 GPCRs [2] (setting [14]); -6.97% at 348 GPCRs [4] (setting [15]); -0.726% at 348 GPCRs [5] (setting [16]); -1.21% at 348 GPCRs [6] (setting [17]); -1.73% at 348 GPCRs [11] (setting [22]). The activation at 100 µM on 348 GPCRs [12] (setting [23]) is -1.83%. The “% GPCR activation compared to TPA” value on 348 GPCRs [3] is 0.8944%. In addition, the activation at 10 µM is -1.11% on 348 GPCRs [7] (setting [18]), -2.68% at 348 GPCRs [8] (setting [19]), -0.22% on 348 GPCRs [9] (setting [20]) and -8.65% at 348 GPCRs [10] (setting [21]).

With `NC(=O)c1nc(F)cnc1O` [favipiravir, 6-fluoro-3-hydroxy-2-pyrazinecarboxamide], the activation at 100 µM on 348 GPCRs [1] (setting [13]) is -0.473%; at 348 GPCRs [2] (setting [14]) it was -3.64%; on 348 GPCRs [4] (setting [15]), -6.03%; on 348 GPCRs [5] (setting [16]) it was -0.33%; on 348 GPCRs [6] (setting [17]), 2.2%; on 348 GPCRs [8] (GPCR PK1 (prokineticin receptor 1), 100μM, read-out: % GPCR activation compared to TPA) it was -2.82%. The activation at 100 µM was -0.384% at 348 GPCRs [10] (GPCR P2Y6 (pyrimidinergic receptor P2Y, G-protein coupled, 6), 100μM, read-out: % GPCR activation compared to TPA); -2.15% on 348 GPCRs [11] (setting [22]); -1.48% on 348 GPCRs [12] (setting [23]). The “% GPCR activation compared to TPA” value at 348 GPCRs [3] is given as -0.5125%. In addition, the activation at 10 µM is -1.55% at 348 GPCRs [7] (setting [18]) and -0.16% at 348 GPCRs [9] (setting [20]).

In the case of `CCC(CC)COC(=O)[C@H](C)N[P@](=O)(OC[C@H]1O[C@@](C#N)(c2ccc3c(N)ncnn23)[C@H](O)[C@@H]1O)Oc1ccccc1` [remdesivir], the activation at 100 µM on 348 GPCRs [1] (setting [24]) is 0.905%; at 348 GPCRs [2] (setting [25]), -2.24%; on 348 GPCRs [4] (setting [26]) it was -7.76%; on 348 GPCRs [5] (setting [27]) it was -0.608%; on 348 GPCRs [6] (setting [28]), 4.22%; at 348 GPCRs [11] (setting [33]), -2.29%. Moreover, the activation at 100 µM on 348 GPCRs [12] (setting [34]) is -0.577%. The “% GPCR activation compared to TPA” value on 348 GPCRs [3] is -0.9507%. Also, the activation at 10 µM at 348 GPCRs [7] (setting [29]) was -2.47%; at 348 GPCRs [8] (setting [30]) it was -3.33%; at 348 GPCRs [9] (setting [31]), 0.159%; on 348 GPCRs [10] (setting [32]), 1.18%.

The values are drawn from PMC10175918 (Communications Biology, 2023).
